# Test results as given in US11535598B2, “Histone deacetylases (HDACs) inhibitors” (ANNJI PHARMACEUTICAL CO., LTD., priority 2017, dated 2022).
# Where two headings read alike, the source gives them in different places.
# What was measured:
# LNCap [1] = assay: Cell proliferation assay MTT, LNCaP; details: read-out: Cytotoxicity IC50 Prostate LNCap, 72 hr treated
# HepG2 [2] = assay: Cell proliferation assay MTT, HepG2; details: read-out: Cytotoxicity IC50 Liver HepG2, 72 hr treated
# in vitro [3] = details: monkey
# Human HDAC11 = Human HDAC11 (Homo sapiens (Human), UniProt Q96DB2); assay: HDAC enzymatic assay, HDAC11; assay type: biochemical; details: 10-dose IC50 mode with a 3-fold serial dilution; read-out: HDAC subtypes IC50 HDAC11
# Chain of Human HDAC11 (Q96DB2 whole entry): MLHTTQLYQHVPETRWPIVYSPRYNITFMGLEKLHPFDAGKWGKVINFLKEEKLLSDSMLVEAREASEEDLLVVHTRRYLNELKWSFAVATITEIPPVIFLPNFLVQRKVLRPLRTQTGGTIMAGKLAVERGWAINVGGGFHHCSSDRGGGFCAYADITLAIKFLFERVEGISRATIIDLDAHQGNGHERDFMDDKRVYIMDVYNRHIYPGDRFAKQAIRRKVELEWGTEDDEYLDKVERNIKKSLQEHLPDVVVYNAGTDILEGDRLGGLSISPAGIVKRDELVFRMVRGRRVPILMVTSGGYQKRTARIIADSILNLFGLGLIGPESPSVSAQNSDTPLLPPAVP
# Description: (§1) The IC50 values for aforementioned compounds against HDACs were determined. HDAC 1 to 11 can be assayed by using acetylated AMC-labeled peptide substrate.
# (§2) Human HDAC1 GenBank Accession No. NM_004964): Full length with C-terminal GST tag, MW=79.9 kDa, Human HDAC2 (GenBank Accession No. Q92769): Full length with C-terminal His tag, MW=60 kDa. Human HDAC3/NcoR2 (GenBank Accession No. […] for HDAC3, GenBank Accession No. NM_006312 for NcoR2): Complex of human HDAC3, full length with C-terminal His tag, MW=49.7 kDa, and human NCOR2, N-terminal GST tag, MW=39 kDa. Human HDAC6 (GenBank Accession No. BC069243): Full length with N-terminal GST tag, MW=159 kDa. Human HDAC8 (GenBank Accession No. NM018486): Full length, MW=42 kDa, expressed in an E. coli expression system.
# (§3) Human HDAC1, Human HDAC2, Human HDAC3/NcoR2, Human HDAC6, Human HDAC10, and Human HDAC11 were all expressed by baculovirus expression system in Sf9 cells.
# (§4) 50 μM HDAC substrate. 1% DMSO final. Incubation for 2 hours at 30° C.
# HL60 = assay: Cell proliferation assay MTT, HL60; details: read-out: Cytotoxicity IC50 Leukemia HL60, 72 hr treated
# MV4-11 = assay: Cell proliferation assay MTT, MV4-11
# Human HDAC1 = Human HDAC1 (Homo sapiens (Human), UniProt Q13547); assay: HDAC enzymatic assay, HDAC1; assay type: biochemical; details: 10-dose IC50 mode with a 3-fold serial dilution; read-out: HDAC subtypes IC50 HDAC1
# Chain of Human HDAC1 (Q13547 whole entry): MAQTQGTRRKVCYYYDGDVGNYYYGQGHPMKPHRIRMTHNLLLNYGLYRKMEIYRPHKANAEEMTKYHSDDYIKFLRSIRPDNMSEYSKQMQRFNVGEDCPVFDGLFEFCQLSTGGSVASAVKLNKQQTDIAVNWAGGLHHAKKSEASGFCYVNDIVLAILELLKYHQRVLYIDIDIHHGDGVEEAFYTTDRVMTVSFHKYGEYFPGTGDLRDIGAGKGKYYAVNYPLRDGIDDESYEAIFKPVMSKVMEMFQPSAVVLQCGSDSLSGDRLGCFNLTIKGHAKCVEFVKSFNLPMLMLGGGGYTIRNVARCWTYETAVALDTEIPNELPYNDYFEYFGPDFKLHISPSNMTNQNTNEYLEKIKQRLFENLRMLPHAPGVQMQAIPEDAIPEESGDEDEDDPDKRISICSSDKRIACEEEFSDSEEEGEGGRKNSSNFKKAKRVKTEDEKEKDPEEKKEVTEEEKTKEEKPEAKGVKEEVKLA
# Description: as §1, §2, §3, §4
# A549 [4] = assay: Cell proliferation assay MTT, A549; details: read-out: Cytotoxicity IC50 Lung A549, 72 hr treated
# MOLM13 = assay: Cell proliferation assay MTT, MOLM13
# Human HDAC8 = Human HDAC8 (Homo sapiens (Human), UniProt Q9BY41); assay: HDAC enzymatic assay, HDAC8; assay type: biochemical; details: 10-dose IC50 mode with a 3-fold serial dilution; read-out: HDAC subtypes IC50 HDAC8
# Chain of Human HDAC8 (Q9BY41 whole entry): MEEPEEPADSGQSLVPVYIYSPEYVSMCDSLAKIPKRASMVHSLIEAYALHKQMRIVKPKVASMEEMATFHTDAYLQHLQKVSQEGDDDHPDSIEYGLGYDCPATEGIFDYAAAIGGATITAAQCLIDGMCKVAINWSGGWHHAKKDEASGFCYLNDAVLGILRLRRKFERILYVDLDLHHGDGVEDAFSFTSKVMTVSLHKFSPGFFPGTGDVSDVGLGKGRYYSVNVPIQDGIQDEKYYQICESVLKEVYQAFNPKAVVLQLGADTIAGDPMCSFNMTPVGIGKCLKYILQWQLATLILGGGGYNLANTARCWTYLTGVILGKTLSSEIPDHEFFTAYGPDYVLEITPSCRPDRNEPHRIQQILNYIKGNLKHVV
# Description: as §1, §2, §4
# PANC1 [5] = assay: Cell proliferation assay MTT, PANC1; details: read-out: Cytotoxicity IC50 Pancreas PANC1, 72 hr treated
# U87MG [6] = assay: Cell proliferation assay MTT, U87MG; details: read-out: Cytotoxicity IC50 Glioblastoma U87MG, 72 hr treated
# in vitro [7] = details: human
# Human HDAC6 = Human HDAC6 (Homo sapiens (Human), UniProt Q9UBN7); assay: HDAC enzymatic assay, HDAC6; assay type: biochemical; details: 10-dose IC50 mode with a 3-fold serial dilution; read-out: HDAC subtypes IC50 HDAC6
# Chain of Human HDAC6 (Q9UBN7 whole entry): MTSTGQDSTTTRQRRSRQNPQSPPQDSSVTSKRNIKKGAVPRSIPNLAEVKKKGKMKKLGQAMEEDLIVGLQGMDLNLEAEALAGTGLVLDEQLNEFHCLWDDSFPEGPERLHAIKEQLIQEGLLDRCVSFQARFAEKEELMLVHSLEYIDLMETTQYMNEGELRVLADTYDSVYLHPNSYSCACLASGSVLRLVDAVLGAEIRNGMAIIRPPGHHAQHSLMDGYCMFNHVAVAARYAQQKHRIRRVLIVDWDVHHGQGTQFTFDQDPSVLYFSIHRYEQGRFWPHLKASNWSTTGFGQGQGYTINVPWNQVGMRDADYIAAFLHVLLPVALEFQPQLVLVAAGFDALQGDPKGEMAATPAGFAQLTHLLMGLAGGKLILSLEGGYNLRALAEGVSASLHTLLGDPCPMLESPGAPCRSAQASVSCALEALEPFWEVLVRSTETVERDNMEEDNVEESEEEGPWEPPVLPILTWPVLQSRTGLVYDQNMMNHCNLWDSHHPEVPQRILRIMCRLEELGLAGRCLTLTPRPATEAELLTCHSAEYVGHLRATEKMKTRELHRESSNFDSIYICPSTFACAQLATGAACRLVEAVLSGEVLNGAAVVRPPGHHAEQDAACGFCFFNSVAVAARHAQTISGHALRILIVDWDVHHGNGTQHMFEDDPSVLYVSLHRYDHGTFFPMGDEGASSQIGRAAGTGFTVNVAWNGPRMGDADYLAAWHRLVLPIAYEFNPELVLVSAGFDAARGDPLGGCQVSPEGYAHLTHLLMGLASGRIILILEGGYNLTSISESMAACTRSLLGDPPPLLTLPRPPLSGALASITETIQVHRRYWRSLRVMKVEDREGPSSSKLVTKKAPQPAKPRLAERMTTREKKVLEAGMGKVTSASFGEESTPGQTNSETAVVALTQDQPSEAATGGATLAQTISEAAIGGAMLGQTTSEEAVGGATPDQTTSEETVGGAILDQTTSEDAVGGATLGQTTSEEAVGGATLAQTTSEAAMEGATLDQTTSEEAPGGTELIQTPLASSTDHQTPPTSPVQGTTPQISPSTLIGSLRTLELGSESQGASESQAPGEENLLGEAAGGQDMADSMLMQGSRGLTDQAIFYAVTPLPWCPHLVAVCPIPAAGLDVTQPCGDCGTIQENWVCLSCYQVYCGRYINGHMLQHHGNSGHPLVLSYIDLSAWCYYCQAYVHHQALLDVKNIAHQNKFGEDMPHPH
# Description: as §1, §2, §3, §4
# A549 [8] = details: human, 72 h
# LNCap [9] = details: human, 72 h
# HepG2 [10] = details: human, 72 h
# U87MG [11] = details: human, 72 h
# PANC1 [12] = details: human, 72 h
# [13] = read-out: Cytotoxicity IC50 Leukemia MV4-11, MTT assay, 72 hr treated
# [14] = read-out: Cytotoxicity IC50 Leukemia MOLM13, MTT assay, 72 hr treated
# [15] = human, MV4-11 leukemia cells, 72 h
# [16] = human, MOLM13 leukemia cells, 72 h
SMILES,IC50 (Human HDAC11) [µM],IC50 (Human HDAC8) [µM],IC50 (A549 [8]) [µM],IC50 at 72 h (in vitro [3]) [µM],IC50 (LNCap [9]) [µM],IC50 (HepG2 [10]) [µM],IC50 (U87MG [11]) [µM],IC50 (LNCap [1]) [µM],IC50 (HepG2 [2]) [µM],IC50 at 72 h (in vitro [3]; Vero normal cells) [µM],IC50 (HL60) [µM],IC50 (MV4-11; [13]) [µM],IC50 (Human HDAC1) [µM],IC50 (A549 [4]) [µM],IC50 (MOLM13; [14]) [µM],IC50 (PANC1 [5]) [µM],IC50 (U87MG [6]) [µM],IC50 at 72 h (in vitro [7]; FHs173We normal cells) [µM],IC50 (Human HDAC6) [µM],IC50 (MV4-11; [15]) [µM],also measured
"O=C(NO)c1ccc(Cn2c(=O)n(CCc3ccccc3)c(=O)c3ccc(C(F)(F)F)cc32)cc1 [Compound 13, 4-((2,4-dioxo-3-phenethyl-7-(trifluoromethyl)-3,4-dihydroquinazolin-1(2H)-yl)methyl)-N-hydroxybenzamide]",7.39,1.44,–,–,–,–,–,5.92 ± 0.21,5.48 ± 0.27,146.2 ± 0.41,0.87 ± 0.12,0.83 ± 0.11,8.02,7.22 ± 0.29,0.92 ± 0.07,8.29 ± 0.43,5.87 ± 0.14,131.7 ± 0.25,0.635,–,–
"O=C(NO)c1ccc(Cn2c(=O)n(CCc3ccccc3)c(=O)c3cc(Cl)ccc32)cc1 [Compound 9, 4-((6-chloro-2,4-dioxo-3-phenethyl-3,4-dihydroquinazolin-1(2H)-yl)methyl)-N-hydroxybenzamide]",–,–,–,–,–,–,–,1.01 ± 0.11,2.03 ± 0.47,77.51 ± 0.14,2.71 ± 0.05,2.78 ± 0.03,18.9,2.45 ± 0.51,2.82 ± 0.07,4.05 ± 0.12,2.26 ± 0.13,70.34 ± 0.12,0.035,–,–
"O=C(NO)c1ccc(Cn2c(=O)n(CCc3ccccc3)c(=O)c3ccccc32)cc1 [Compound 5, 4-((2,4-dioxo-3-phenethyl-3,4-dihydroquinazolin-1(2H)-yl)methyl)-N-hydroxybenzamide]",13.9,0.376,–,–,–,–,–,0.44 ± 0.07,1.93 ± 0.25,91.38 ± 0.47,0.25 ± 0.03,0.17 ± 0.05,11.2,3.75 ± 0.39,0.16 ± 0.03,4.15 ± 0.27,1.56 ± 0.14,83.21 ± 0.62,0.004,–,–

# Further lines, with some results ahead:
IC50 (Human HDAC11) [µM],IC50 (Human HDAC8) [µM],IC50 (A549 [8]) [µM],IC50 at 72 h (in vitro [3]) [µM],IC50 (LNCap [9]) [µM],IC50 (HepG2 [10]) [µM],IC50 (U87MG [11]) [µM],SMILES,IC50 (LNCap [1]) [µM],IC50 (HepG2 [2]) [µM],IC50 at 72 h (in vitro [3]; Vero normal cells) [µM],IC50 (HL60) [µM],IC50 (MV4-11; [13]) [µM],IC50 (Human HDAC1) [µM],IC50 (A549 [4]) [µM],IC50 (MOLM13; [14]) [µM],IC50 (PANC1 [5]) [µM],IC50 (U87MG [6]) [µM],IC50 at 72 h (in vitro [7]; FHs173We normal cells) [µM],IC50 (Human HDAC6) [µM],IC50 (MV4-11; [15]) [µM],also measured
52.1,2.52,7.44 ± 0.12,127.4 ± 0.28,5.38 ± 0.41,6.82 ± 0.44,5.68 ± 0.19,"Cc1ccc2c(=O)n(CCc3ccccc3)c(=O)n(Cc3ccc(C(=O)NO)cc3)c2c1 [Compound 22, N-hydroxy-4-((7-methyl-2,4-dioxo-3-phenethyl-3,4-dihydroquinazolin-1(2H)-yl)methyl)benzamide]",–,–,–,1.46 ± 0.08,–,10.9,–,–,–,–,–,0.17,1.64 ± 0.07,IC50 (PANC1 [12]): 8.73 ± 0.71 µM; IC50 (MOLM13; [16]): 1.77 ± 0.05 µM; IC50 at 72 h (in vitro [7]): 135.1 ± 0.39 µM
10.7,0.428,4.58 ± 0.21,93.26 ± 0.25,0.96 ± 0.02,4.03 ± 0.11,3.77 ± 0.25,"O=C(NO)c1ccc(Cn2c(=O)n(CCc3cccc(F)c3)c(=O)c3ccccc32)cc1 [Compound 26, 4-((3-(3-fluorophenethyl)-2,4-dioxo-3,4-dihydroquinazolin-1(2H)-yl)methyl)-N-hydroxybenzamide]",–,–,–,3.12 ± 0.08,–,13.2,–,–,–,–,–,0.01,3.71 ± 0.11,IC50 (PANC1 [12]): 5.03 ± 0.19 µM; IC50 (MOLM13; [16]): 4.01 ± 0.06 µM; IC50 at 72 h (in vitro [7]): 84.34 ± 0.73 µM
14.7,1.05,6.35 ± 0.11,116 ± 0.23,4.25 ± 0.21,6.82 ± 0.12,6.31 ± 0.63,"O=C(NO)c1ccc(Cn2c(=O)n(CCc3ccc(F)cc3)c(=O)c3ccccc32)cc1 [Compound 14, 4-((3-(4-fluorophenethyl)-2,4-dioxo-3,4-dihydroquinazolin-1(2H)-yl)methyl)-N-hydroxybenzamide]",–,–,–,1.37 ± 0.07,–,10.8,–,–,–,–,–,0.023,1.77 ± 0.05,IC50 (PANC1 [12]): > 10 µM; IC50 (MOLM13; [16]): 1.62 ± 0.09 µM; IC50 at 72 h (in vitro [7]): 83.81 ± 0.19 µM
